Reference: patent US20240122956A1, “Application of Naringin Combined with Rapamycin in Preparation of Medications for Treating Hyperlipidemia” (AIR FORCE MEDICAL UNIVERSITY, priority 2023, published 2024)

Tests used:
[1] = system: hyperlipidemia model Ldr1−/− (C57BL/6J) mice; assay: lipid accumulation / lesions in carotid arteries, aortic roots and liver of hyperlipidemic mice (Oil Red O); format: in vivo; conditions: high-fat diet 16 weeks, naringin 20 mg/kg daily intraperitoneal, RAPA 40 mg/kg in diet
Text: To evaluate the synergistic therapeutic effects of naringin and rapamycin on hyperlipidemia mice (FIG. 4), a hyperlipidemia model was established using Ldr1^−/− (C57BL/6J) mice. […] Subsequently, mouse serum, tissues of carotid arteries, liver, and aortic root were collected for analysis. Assessment of Lesions in Carotid Arteries, Aortic Roots, and Liver Tissues: Carotid arteries, hearts, and livers of mice were dissected, fixed overnight with 4% PFA, and carotid arteries were stained with Oil Red O after gently removing adherent (outer membrane) fat and flattening them from the carotid arteries. The stained aortas were placed on anti-fall-off slides, fully unfolded, and images were captured using a high-resolution camera. Hearts and livers were embedded in OCT tissue, and 7-10 μm thick continuous sections were collected. Staining was performed with Oil Red O and hematoxylin and eosin. Stained sections were analyzed using an optical microscope. ImageJ (version 2.10) was used for quantitative analysis of the images. Lesion areas were assessed according to the percentage of Oil Red 0-positive areas in the total sampled area.

[2] = system: oxidized low-density lipoprotein (oxLDL); assay: drug screening among 200 natural products for neutralizing oxLp: affinity and surface charge, oxLDL; format: binding
Text: (§1) This unregulated process of lipid accumulation and inflammatory reaction, induced by oxLp-NLRP3 complexes, accelerates the progression of hyperlipidemia. Considering the role of oxLp-NLRP3 complexes in the progression of hyperlipidemia, a drug screening technique was employed to search for potential compounds among 200 natural products with the aim of neutralizing oxLp. […] Therefore, naringin was selected for further investigation.

THP-1 cells [3] = assay: IL-1β release in THP-1 cells; format: cell-based; conditions: naringin 100 μM pre-treatment 1 hour
Description: (§2) Cell Culture and Treatment: THP-1 cells (from American Type Culture Collection, Manassas, Virginia) were cultured in RPMI 1640. They were pre-treated with naringin (Sigma, 91842; 100 μM) for 1 hour, followed by cultivation in serum-free medium containing oxLDL and oxHDL (50 μg/mL) for 3 hours. The culture condition was maintained at 37° C. and with 5% CO2.
Measurement of IL-1β: IL-1β was measured using a commercially available IL-1β assay kit according to the manufacturer's instructions.

oxHDL-NLRP3 complexes = assay: formation of oxHDL-NLRP3 complexes in THP-1 cells (fluorescence imaging); format: cell-based; conditions: naringin 100 μM pre-treatment 1 hour, oxHDL 50 μg/mL 3 hours
Description: as §2

oxLDL-NLRP3 complexes = assay: formation of oxLDL-NLRP3 complexes in THP-1 cells (fluorescence imaging); format: cell-based; conditions: naringin 100 μM pre-treatment 1 hour, oxLDL 50 μg/mL 3 hours
Description: as §2

[4] = system: oxidized high-density lipoprotein (oxHDL); assay: drug screening among 200 natural products for neutralizing oxLp: affinity and surface charge, oxHDL; format: binding
Text: as §1

THP-1 cells [5] = assay: intracellular cholesterol accumulation in THP-1 cells; format: cell-based; conditions: naringin 100 μM pre-treatment 1 hour
Description: as §2
Measurement of Intracellular Cholesterol: Intracellular cholesterol was determined using a commercially available intracellular cholesterol assay kit according to the manufacturer's instructions.

`C[C@@H]1O[C@@H](O[C@H]2[C@H](Oc3cc(O)c4c(c3)O[C@H](c3ccc(O)cc3)CC4=O)O[C@H](CO)[C@@H](O)[C@@H]2O)[C@H](O)[C@H](O)[C@H]1O` [naringin] was tested, and the “lipid accumulation in the aortic roots” value [1] was “alleviated lipid accumulation”, the “lipid accumulation in the carotid arteries” value [1] was “alleviated lipid accumulation” and the “lipid accumulation in the livers” value [1] was “alleviated lipid accumulation”. The “neutralizing the negative charge on the surface of oxLDL” value [2] was “capable of neutralizing the negative charge”, the “affinity for oxLDL” value ([2]; drug screening) was “high affinity” and the “oxHDL-induced IL-1β release” value (THP-1 cells [3]; oxHDL 50 μg/mL 3 hours) was “reduced”. For the same compound, the “oxLDL-induced IL-1β release” value (THP-1 cells [3]; oxLDL 50 μg/mL 3 hours) was “reduced”, the “formation of complexes between oxHDL and NLRP3” value (oxHDL-NLRP3 complexes) was “inhibited the formation of complexes” and the “formation of complexes between oxLDL and NLRP3” value (oxLDL-NLRP3 complexes) was “inhibited the formation of complexes”. For the same compound, the “neutralizing the negative charge on the surface of oxHDL” value [4] was “capable of neutralizing the negative charge”, the “affinity for oxHDL” value ([4]; drug screening) was “high affinity” and the oxHDL-induced cholesterol accumulation (THP-1 cells [5]; oxHDL 50 μg/mL 3 hours) was “reduced”. For the same compound, the oxLDL-induced cholesterol accumulation (THP-1 cells [5]; oxLDL 50 μg/mL 3 hours) was “reduced”.
